Measured values from patent US20260042764A1, “COMPOSITIONS AND METHODS FOR INHIBITION OF KRAS” (TheRas, Inc., priority 2022, published 2026).

Experiments:
[1] = target: T1, Avi-KRAS G12D (1-169) GppNHp/RAF1 RBD-3xFLAG (52-151) (Homo sapiens, UniProt P01116, G12D); test: Raf1-KRAS G12D-GppNHP disruption HTRF assay (Biological Example 1); format: binding
T1 construct: Avi-KRAS G12D (1-169)
Outline: (§1)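 Read-out is HTRF signal of the KRAS–RAF1 RBD complex, reported as percentage of activity relative to DMSO (100%). Protein mix and detection reagents each incubated 1 h at room temperature with 700 rpm shaking. Buffer: 50 mM Tris pH 7.5, 100 mM NaCl, 5 mM MgCl2, 0.1% BSA, 0.01% Tween, 10% DMSO.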

[2] = target: T2, Avi-KRAS G12R (1-169) GppNHp/RAF1 RBD-3xFLAG (52-151) (Homo sapiens, UniProt P01116, G12R); test: Raf1-KRAS G12R-GppNHP disruption HTRF assay (Biological Example 1); format: binding
T2 construct: Avi-KRAS G12R (1-169)
Outline: as §1

[3] = target: T3, Avi-KRAS G12V (1-169) GppNHp/RAF1 RBD-3xFLAG (52-151) (Homo sapiens, UniProt P01116, G12V); test: Raf1-KRAS G12V-GppNHP disruption HTRF assay (Biological Example 1); format: binding
T3 construct: Avi-KRAS G12V (1-169)
Outline: as §1

[4] = target: T4, Avi-KRAS WT (1-169) GppNHp/RAF1 RBD-3xFLAG (52-151) (Homo sapiens, UniProt P01116); test: Raf1-KRAS WT-GppNHP disruption HTRF assay (Biological Example 1); format: binding
T4 construct: Avi-KRAS WT (1-169)
Outline: as §1

[5] = test system: GP2d cells (KRAS G12D); test: Cell-based pERK HTRF assay in GP2d cell (Biological Example 2); settings: GP2d (KRAS G12D) cells, pERK HTRF
Outline: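 Cells grown in DMEM with 10% FBS were exposed to compound for 60 min at 0.25% DMSO, using a 9-point half-log series starting at 1 μM or 100 nM. Lysates were then mixed with d2 and Eu cryptate antibodies for 4–24 h at room temperature, and pERK was read by HTRF.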

[6] = test system: SW620 cells (KRAS G12V); test: Cell-based pERK HTRF assay in SW620 cell (Biological Example 4); settings: pERK HTRF
Outline: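 SW620 (KRAS G12V) cells seeded at 3×10^4/well in RPMI, 10% FBS, then treated next day for 4 h with a 9-point half-log series from 1 μM top (0.25% DMSO). Lysates analyzed for pERK by HTRF (Eu cryptate/d2 antibodies, 4–24 h at room temperature), excitation 320 nm, emission 615 nm.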

[7] = Homo sapiens, SW-620, SW620 (KRAS G12V) cells
[8] = KRAS G12D, GppNHp-loaded, class symbols
[9] = KRAS G12R, GppNHp-loaded, class symbols
[10] = KRAS G12V, GppNHp-loaded, class symbols
[11] = KRAS WT, GppNHp-loaded, class symbols
[12] = Homo sapiens, SW-620, SW620 (KRAS G12V) cells, class symbols
[13] = KRAS G12D, GppNHp-loaded, Table 11
[14] = KRAS G12R, GppNHp-loaded, Table 11
[15] = KRAS G12V, GppNHp-loaded, Table 11
[16] = KRAS WT, GppNHp-loaded, Table 11

T4 sequence (P01116 1-169 isoform P01116-2): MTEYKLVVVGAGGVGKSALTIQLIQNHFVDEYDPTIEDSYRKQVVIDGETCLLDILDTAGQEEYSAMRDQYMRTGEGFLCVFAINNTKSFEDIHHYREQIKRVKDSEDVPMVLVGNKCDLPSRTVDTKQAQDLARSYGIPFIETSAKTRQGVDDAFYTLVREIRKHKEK
T1 sequence (P01116 1-169 isoform P01116-2 G12D): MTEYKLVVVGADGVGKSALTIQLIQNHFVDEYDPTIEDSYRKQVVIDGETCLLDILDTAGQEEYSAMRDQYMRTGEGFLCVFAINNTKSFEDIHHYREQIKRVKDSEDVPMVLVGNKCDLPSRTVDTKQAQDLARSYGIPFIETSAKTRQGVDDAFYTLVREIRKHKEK
T3 sequence (P01116 1-169 isoform P01116-2 G12V): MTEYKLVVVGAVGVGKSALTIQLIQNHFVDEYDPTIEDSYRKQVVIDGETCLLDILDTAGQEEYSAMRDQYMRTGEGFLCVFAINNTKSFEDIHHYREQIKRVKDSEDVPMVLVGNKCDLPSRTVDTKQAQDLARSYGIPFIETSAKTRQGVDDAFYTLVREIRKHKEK
T2 sequence (P01116 1-169 isoform P01116-2 G12R): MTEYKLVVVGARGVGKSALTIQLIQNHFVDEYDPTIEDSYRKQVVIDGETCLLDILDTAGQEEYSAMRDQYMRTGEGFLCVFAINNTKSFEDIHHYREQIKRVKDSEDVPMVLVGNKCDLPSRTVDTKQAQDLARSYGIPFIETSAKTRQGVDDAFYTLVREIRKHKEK

| SMILES | IC50 ([1]; KRAS G12D-GppNHp/RAF1 RBD HTRF) [nM] | IC50 ([2]; KRAS G12R-GppNHp/RAF1 RBD HTRF) [nM] | IC50 ([3]; KRAS G12V-GppNHp/RAF1 RBD HTRF) [nM] | IC50 ([4]; KRAS WT-GppNHp/RAF1 RBD HTRF) [nM] | IC50 ([5]; GP2d) [nM] | IC50 [6, 7] [nM] | IC50 [1, 8] [nM] | IC50 [2, 9] [nM] | IC50 [3, 10] [nM] | IC50 [4, 11] [nM] | IC50 ([5]; GP2d, class symbols) [nM] | IC50 [6, 12] [nM] | other results |
| --- | --- | --- | --- | --- | --- | --- | --- | --- | --- | --- | --- | --- | --- |
| CC(C)C(=O)N1CC[C@@H](N(C)c2nc(OC[C@@]34CCCN3C[C@H](F)C4)nc3c(F)c(-c4ccc(F)c5sc(N)c(C#N)c45)c(C(F)(F)F)cc23)[C@@H]1C [Compound 300] | 100 to 1000 | 1000 to 10000 | 1000 to 10000 | 100 to 1000 | < 100 | 100 to 1000 | – | – | – | – | – | – | – |
| N#Cc1c(N)sc2c(F)ccc(-c3c(C(F)(F)F)cc4c(N5CCOCC5)nc(OC[C@@]56CCCN5C[C@H](F)C6)nc4c3F)c12 (single isomer, unassigned) [Compound 199] | – | – | – | – | – | – | – | – | – | – | – | – | IC50 [1, 13]: > 10000 nM; IC50 [2, 14]: > 10000 nM; IC50 [3, 15]: > 10000 nM; IC50 [4, 16]: > 10000 nM; IC50 [5]: > 1000 nM; IC50 ([6]; SW620 (KRAS G12V) cells): > 1000 nM |
| CN1CCN(c2nc(OC[C@@]34CCCN3C[C@H](F)C4)nc3c(F)c(-c4ccc(F)c5sc(N)c(C#N)c45)c(C(F)(F)F)cc23)CCC1=O [Compound 271] | – | – | – | – | < 100 | < 100 | – | – | – | – | – | – | IC50 [1, 13]: 100 to 1000 nM; IC50 [2, 14]: 100 to 1000 nM; IC50 [3, 15]: 100 to 1000 nM; IC50 [4, 16]: 100 to 1000 nM |
| CC(=O)N1C[C@@H](N(C)c2nc(OC[C@@]34CCCN3C[C@H](F)C4)nc3c(F)c(-c4ccc(F)c5sc(N)c(C#N)c45)c(C(F)(F)F)cc23)[C@@H](F)C1 [Compound 187] | – | – | – | – | < 100 | < 100 | – | – | – | – | – | – | IC50 [1, 13]: < 100 nM; IC50 [2, 14]: 100 to 1000 nM; IC50 [3, 15]: 100 to 1000 nM; IC50 [4, 16]: 100 to 1000 nM |

More lines, main results first:

| IC50 ([1]; KRAS G12D-GppNHp/RAF1 RBD HTRF) [nM] | IC50 ([2]; KRAS G12R-GppNHp/RAF1 RBD HTRF) [nM] | IC50 ([3]; KRAS G12V-GppNHp/RAF1 RBD HTRF) [nM] | IC50 ([4]; KRAS WT-GppNHp/RAF1 RBD HTRF) [nM] | IC50 ([5]; GP2d) [nM] | IC50 [6, 7] [nM] | IC50 [1, 8] [nM] | IC50 [2, 9] [nM] | IC50 [3, 10] [nM] | IC50 [4, 11] [nM] | IC50 ([5]; GP2d, class symbols) [nM] | IC50 [6, 12] [nM] | SMILES | other results |
| --- | --- | --- | --- | --- | --- | --- | --- | --- | --- | --- | --- | --- | --- |
| > 10000 | > 10000 | > 10000 | > 10000 | > 1000 | > 1000 | – | – | – | – | – | – | CN1CCN(c2nc(OC[C@@]34CCCN3C[C@H](F)C4)nc3c(F)c(-c4ccc(F)c5sc(N)c(C#N)c45)c(C(F)(F)F)cc23)CCS1(=O)=O [Compound 311] | – |
| – | – | – | – | – | – | < 100 | < 100 | 100 to 1000 | < 100 | < 100 | < 100 | CCN(c1nc(OC[C@@]23CCCN2C[C@H](F)C3)nc2c(F)c(-c3ccc(F)c4sc(N)c(C#N)c34)c(C(F)(F)F)cc12)[C@H]1CCN(C(=O)[C@H](C)CF)C1 (atropisomer, axis not shown) [Compound 790] | – |
| 100 to 1000 | 100 to 1000 | 100 to 1000 | 100 to 1000 | < 100 | < 100 | – | – | – | – | – | – | C[C@@H]1[C@H](N(C)c2nc(OC[C@@]34CCCN3C[C@H](F)C4)nc3c(F)c(-c4ccc(F)c5sc(N)c(C#N)c45)c(C(F)(F)F)cc23)CCN1C(=O)N(C)C [Compound 409] | – |
| 100 to 1000 | 100 to 1000 | 1000 to 10000 | 100 to 1000 | < 100 | 100 to 1000 | – | – | – | – | – | – | CC(=O)N1CC[C@@H](N(C)c2nc(OC[C@@]34CCCN3C[C@H](F)C4)nc3c(F)c(-c4ccc(F)c5oc(N)c(C#N)c45)c(C(F)(F)F)cc23)[C@H]1C [Compound 326] | – |
| – | – | – | – | – | – | < 100 | < 100 | < 100 | < 100 | < 100 | < 100 | CCOC1CN(C(=O)N2CC[C@H](N(CC)c3nc(OC[C@@]45CCCN4C[C@H](F)C5)nc4c(F)c(-c5ccc(F)c6sc(N)c(C#N)c56)c(C(F)(F)F)cc34)C2)C1 (atropisomer, axis not shown) [Compound 758] | – |
| – | – | – | – | – | – | < 100 | < 100 | < 100 | 100 to 1000 | < 100 | < 100 | CCC(=O)N1C[C@@H](N(CC)c2nc(OC[C@@]34CCCN3C[C@H](F)C4)nc3c(F)c(-c4ccc(F)c5sc(N)c(C#N)c45)c(C(F)(F)F)cc23)C[C@@H]1COC (atropisomer, axis not shown) [Compound 648] | – |
| – | – | – | – | – | – | < 100 | < 100 | < 100 | < 100 | < 100 | < 100 | CCN(c1nc(OCC23CCCN2CC(F)C3)nc2c(F)c(-c3ccc(F)c4sc(N)c(C#N)c34)c(C(F)(F)F)cc12)C1CCN(C(=O)c2cccnc2)C1 (stereo not drawn) [Compound 715] | – |
